# Reference: PMC6508677, “Identification of druggable small molecule antagonists of the Plasmodium falciparum hexose transporter PfHT and assessment of ligand access to the glucose permeation pathway via FLAG-mediated protein engineering” (PLoS ONE, 2019)
# pIC50: −log10 of the molar value. Where “and” joins values, the source holds several entries; their conditions need not be identical. Identical values can stand only once. Like-named read-outs stand apart in the source and are kept apart here.
# Target: T1, PfHT (Plasmodium falciparum, UniProt Q7KWJ5)
# T1 sequence (Q7KWJ5 1-504): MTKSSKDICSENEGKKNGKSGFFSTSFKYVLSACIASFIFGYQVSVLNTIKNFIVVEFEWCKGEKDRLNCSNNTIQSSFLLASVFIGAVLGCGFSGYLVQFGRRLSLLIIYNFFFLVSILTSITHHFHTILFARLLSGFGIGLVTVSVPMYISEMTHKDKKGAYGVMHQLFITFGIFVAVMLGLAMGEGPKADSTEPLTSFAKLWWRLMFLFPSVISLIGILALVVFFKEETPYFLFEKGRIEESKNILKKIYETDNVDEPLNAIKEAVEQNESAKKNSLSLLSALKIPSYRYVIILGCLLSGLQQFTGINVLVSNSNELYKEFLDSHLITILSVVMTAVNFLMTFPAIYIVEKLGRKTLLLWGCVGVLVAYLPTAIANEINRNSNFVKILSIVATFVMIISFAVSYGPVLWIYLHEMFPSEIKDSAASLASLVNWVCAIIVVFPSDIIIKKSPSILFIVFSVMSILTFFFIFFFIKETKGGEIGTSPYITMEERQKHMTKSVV
# Test: 2-DG uptake by HEK293 cells overexpressing PfHT
# Type: cell-based
# Design: expressed in transfected cells; host or cells: HEK293 (HEK293-FLIP, native hGLUT1 knocked down by shRNA)
# Settings: for Maximum Inhibition (%): 2-DG uptake, PfHT cell line; for remaining activity at 0.001 µM / remaining activity at 0.09375 µM / remaining activity at 0.1875 µM / remaining activity at 0.3125 µM / remaining activity at 0.375 µM / remaining activity at 0.625 µM / remaining activity at 1.25 µM / remaining activity at 2.5 µM / remaining activity at 5 µM / remaining activity at 10 µM / remaining activity at 20 µM / remaining activity at 40 µM / inhibition at 5 µM / remaining activity at 0.75 µM / remaining activity at 80 µM / remaining activity at 160 µM / remaining activity at 225 µM: HEK293, 4 min; for inhibition at 5 µM: read-out: % Inhibition of 2-DG uptake vs vehicle; for pIC50: IC50 for inhibition of 2-DG uptake
# Excerpt: Generation of HEK293 cells overexpressing PfHT and human GLUTs 1–4 were described elsewhere. Briefly, HEK293 cells were transfected with pcDNA3.1 FLII12Pglu-7006 (Addgene), containing the fluorescence resonance energy transfer (FRET) glucose sensor (HEK293-FLIP) and PfHT, human GLUT1 (hGLUT1), hGLUT2, hGLUT3, hGLUT4, hGLUT5 or hGLUT8 using Optifect (Life Technologies) according to manufacturer’s specifications. To increase retention of GLUT8 at the plasma membrane, the dileucine sorting signal E^7E^8XXXLL was modified to R^7R^8XXXLL as described in [17]. Stable transfectants were selected for G418 and hygromycin resistance to select for FRET sensor and hexose transporter, respectively. HEK293-FLIP cells were also used to generate cells stably transfected with FLAG-tagged PfHT (FTPfHT). FLAG tag ([…]) followed by a triple glycine linker and a tobacco etch virus (TEV) protease site (ENLYFQS) followed by a triple glycine linker was added to the N-terminus of PfHT via PCR [18] using Phusion Hot Start II High-Fidelity DNA Polymerase (Fisher Scientific). Single clones were selected by comparing their abilities to transport glucose as assayed via FRET and radiolabeled hexose uptake. In all cell lines, except for HEK293 cells overexpressing hGLUT1 and hGLUT5, native hGLUT1 was knocked down using shRNA as described elsewhere. Transcript levels of the individual GLUTs expressed in each cell line are as described in [13, 15] and in S1 Fig.
# Glucose uptake by P. falciparum was performed essentially as described. P. falciparum strain 3D7 was cultured in 100 mm tissue culture dishes (Techno Plastic Products) in a 2% suspension of human erythrocytes and RPMI 1640 medium until reaching > 7.5% parasitemia. Cells were pelleted via centrifugation and resuspended in RPMI 1640 medium. To determine the uptake of radiolabeled glucose into the parasite, parasites were isolated from infected erythrocytes by permeablization with saponin (0.05 w/v), followed by centrifugation, aspiration of supernatant and washing of the pellet 3X with saline solution (135 mM NaCl, 2 mM KCl, 25 mM HEPES, 0.2 mM glucose and 1 mM MgCl2; pH 7.1) to remove cellular debris. WU-1 or DMSO vehicle were added to 100 μl parasites (resuspended in saline) 5 min prior to the addition of 100 μl [^14C]2-DOG (0.2- μCi/ml final concentration). 2-DG uptake was stopped after 2 min by layering the entire reaction over 300 μl of an oil mixture (5:4 mix of dibutyl phthalate / dinonyl phthalate) in Eppendorf tubes and centrifuged at 15,850 × g for 2 mins. The ratio of the estimated intracellular concentration of radiolabel relative to the extracellular concentration were calculated as described. Uptake of radiolabeled hexose into HEK293 cells was measured in glucose-free HBSS as described previously. Briefly, cells were plated at 400,000 cells/well overnight at 37°C in 24-well plates pre-treated with PEI. After 30-min incubation at 37°C in glucose-free HBSS in the presence of vehicle or increasing concentrations of compound, 2-DG uptake was measured in glucose-free HBSS for 4 min at 37°C. Cultures were washed in ice-cold 1X PBS and lysed in 0.1% Triton X-100 in 1X PBS. Radiolabeled hexose uptake was determined by liquid scintillation counting (Ultima Gold, Thermo Fisher) and normalized to total protein per well. Uptake data are plotted as percent uptake relative to vehicle-treated cells. Kinetic analyses were performed using the indicated concentrations of substrate and WU-1, with quenching of uptake after 1 min incubation. Incubation times had been previously determined as being in the linear range of time-dependent radiolabeled hexose uptake (2 min for 2-DG uptake into freed parasites; 2 and 4 min for D-Frc and 2-DG uptake HEK cell lines, respectively). Data were fit by least squares nonlinear regression analysis using GraphPad Prism 6.0 software.
# [1] = read-out: 2-DG uptake (percent uptake relative to vehicle), AVE, PfHT, 0.001 µM compound
# [2] = read-out: 2-DG uptake (percent uptake relative to vehicle), AVE, PfHT, 0.09375 µM compound
# [3] = read-out: 2-DG uptake (percent uptake relative to vehicle), AVE, PfHT, 0.1875 µM compound
# [4] = read-out: 2-DG uptake (percent uptake relative to vehicle), AVE, PfHT, 0.3125 µM compound (0.313 in Fig 1 sheet for WU-1)
# [5] = read-out: 2-DG uptake (percent uptake relative to vehicle), AVE, PfHT, 0.375 µM compound
# [6] = read-out: 2-DG uptake (percent uptake relative to vehicle), AVE, PfHT, 0.625 µM compound
# [7] = read-out: 2-DG uptake (percent uptake relative to vehicle), AVE, PfHT, 1.25 µM compound
# [8] = read-out: 2-DG uptake (percent uptake relative to vehicle), AVE, PfHT, 2.5 µM compound
# [9] = read-out: 2-DG uptake (percent uptake relative to vehicle), AVE, PfHT, 5 µM compound
# [10] = read-out: 2-DG uptake (percent uptake relative to vehicle), AVE, PfHT, 10 µM compound
# [11] = read-out: 2-DG uptake (percent uptake relative to vehicle), AVE, PfHT, 20 µM compound
# [12] = read-out: 2-DG uptake (percent uptake relative to vehicle), AVE, PfHT, 40 µM compound
# [13] = HEK293 cells overexpressing PfHT, mean/reported value
# [14] = individual experiments, HEK293 PfHT, Expt 1-3
compound,measurement,setting,value
"COc1c(Br)cc([N+](=O)[O-])c(OC)c1C(=O)NC(=O)Nc1c(C)cccc1Cl [WU-2, 3-(3-bromo-2,6-dimethoxy-5-nitrobenzoyl)-1-(2-chloro-6-methylphenyl)urea]",Maximum Inhibition (%),,84.4%
same,remaining activity at 0.001 µM,[1],97.7%
same,remaining activity at 0.09375 µM,[2],96%
same,remaining activity at 0.1875 µM,[3],93.9%
same,remaining activity at 0.3125 µM,[4],85%
same,remaining activity at 0.375 µM,[5],79.7%
same,remaining activity at 0.625 µM,[6],75.7%
same,remaining activity at 1.25 µM,[7],68.5%
same,remaining activity at 2.5 µM,[8],62.4%
same,remaining activity at 5 µM,[9],50.6%
same,remaining activity at 10 µM,[10],39.9%
same,remaining activity at 20 µM,[11],26.3%
same,remaining activity at 40 µM,[12],17.3%
same,inhibition at 5 µM,,47.9%
same,pIC50,[13],5.38
same,pIC50,[14],5.52 and 5.42 and 5.25
"Cc1ccc(S(=O)(=O)CCNC(=O)c2c(-c3c(Cl)cccc3Cl)noc2C)cc1 [WU-1, 3-(2,6-dichlorophenyl)-5-methyl-N-[2-(4-methylbenzenesulfonyl)ethyl]-1,2-oxazole-4-carboxamide]",Maximum Inhibition (%),,93.2%
same,remaining activity at 0.001 µM,"read-out: 2-DG Uptake AVE, PfHT, concentration 0.001 µM, Expt 1-3",100%
same,remaining activity at 0.09375 µM,"read-out: 2-DG Uptake AVE, PfHT, concentration 0.09375 µM",91.6%
same,remaining activity at 0.1875 µM,"read-out: 2-DG Uptake AVE, PfHT, concentration 0.1875 µM",88.9%
same,remaining activity at 0.3125 µM,"read-out: 2-DG Uptake AVE, PfHT, concentration 0.3125 µM",90.1%
same,remaining activity at 0.375 µM,"read-out: 2-DG Uptake AVE, PfHT, concentration 0.375 µM",85.8%
same,remaining activity at 0.625 µM,"read-out: 2-DG Uptake AVE, PfHT, concentration 0.625 µM",85.2%
same,remaining activity at 0.75 µM,"read-out: 2-DG Uptake AVE, PfHT, concentration 0.75 µM",76.1%
same,remaining activity at 1.25 µM,"read-out: 2-DG Uptake AVE, PfHT, concentration 1.25 µM",64.5%
same,remaining activity at 2.5 µM,"read-out: 2-DG Uptake AVE, PfHT, concentration 2.5 µM",70.2%
same,remaining activity at 5 µM,"read-out: 2-DG Uptake AVE, PfHT, concentration 5 µM",49.8%
same,remaining activity at 10 µM,"read-out: 2-DG Uptake AVE, PfHT, concentration 10 µM",34.7%
same,remaining activity at 20 µM,"read-out: 2-DG Uptake AVE, PfHT, concentration 20 µM",21.1%
same,remaining activity at 40 µM,"read-out: 2-DG Uptake AVE, PfHT, concentration 40 µM",20.4%
same,remaining activity at 80 µM,"read-out: 2-DG Uptake AVE, PfHT, concentration 80 µM",8.82%
same,remaining activity at 160 µM,"read-out: 2-DG Uptake AVE, PfHT, concentration 160 µM",5.63%
same,remaining activity at 225 µM,"read-out: 2-DG Uptake AVE, PfHT, concentration 225 µM",5.69%
same,remaining activity at 0.001 µM,[1],100%
same,remaining activity at 0.09375 µM,[2],91.6%
same,remaining activity at 0.1875 µM,[3],88.9%
same,remaining activity at 0.3125 µM,[4],90.2%
same,remaining activity at 0.375 µM,[5],85.8%
same,remaining activity at 0.625 µM,[6],85.3%
same,remaining activity at 0.75 µM,"read-out: 2-DG uptake (percent uptake relative to vehicle), AVE, PfHT, 0.75 µM compound",76.1%
same,remaining activity at 1.25 µM,[7],80.1%
same,remaining activity at 2.5 µM,[8],68.2%
same,remaining activity at 5 µM,[9],53.2%
same,remaining activity at 10 µM,[10],42.3%
same,remaining activity at 20 µM,[11],30.2%
same,remaining activity at 40 µM,[12],18.7%
same,remaining activity at 80 µM,"read-out: 2-DG uptake (percent uptake relative to vehicle), AVE, PfHT, 80 µM compound",9.91%
same,remaining activity at 160 µM,"read-out: 2-DG uptake (percent uptake relative to vehicle), AVE, PfHT, 160 µM compound",5.69%
same,remaining activity at 225 µM,"read-out: 2-DG uptake (percent uptake relative to vehicle), AVE, PfHT, 225 µM compound",6.88%
same,inhibition at 5 µM,,50.2%
same,IC50,"IC50 (µM), PfHT, 2-DG Uptake, single experiments Expt 1-3",4.6 µM and 6.6 µM and 6.34 µM
same,pIC50,[13],5.24 and 5.23
same,pIC50,[14],5.34 and 5.18 and 5.20
same,"2-DG uptake (percent uptake relative to vehicle), AVE","PfHT, 0.001 µM compound",100.00
same,2-DG Uptake AVE,"PfHT, concentration 0.001 µM, Expt 1-3",100.00
same,"Selectivity Index, 2-DG, PfHT line itself",reference value,1.0
